One data set relates to tumor cell line LoVo. In words: in vitro LoVo cell proliferation inhibition assay (CellTiter-Glo cell viability). In kind it is cell-based. The following applies: Homo sapiens, LoVo cells. The method, then:
In this assay, the effect of the compounds on inhibiting cell proliferation was studied by detecting the effect of the compounds on the cell viability in vitro in the tumor cell line LoVo.
Cell viability detection using CellTiter-Glo luminescence assay
The following steps were performed according to the instructions of the Promega CellTiter-Glo Luminescent Cell Viability Detection Kit (Promega-G7573).
(1). A CellTiter-Glo buffer was thawed and allowed to stand to reach room temperature.
(2). A CellTiter-Glo substrate was allowed to stand to reach room temperature.
(3). The CellTiter-Glo buffer was added to the CellTiter-Glo substrate in a bottle to dissolve the substrate to formulate a CellTiter-Glo working solution.
(4). The working solution was vortexed slowly for fully dissolution.
(5). A cell culture plate was taken out and allowed to stand for 30 minutes to equilibrate to room temperature.
(6). 50 μL (equal to half the volume of cell culture solution in each well) of the CellTiter-Glo working solution was added into each well. The cell plate was wrapped with aluminum foil to protect the cell plate from light.
(7). The culture plate was shaken on an orbital shaker for 2 minutes to induce cell lysis.
(8). The culture plate was left at room temperature for 10 minutes to stabilize luminescent signals.
(9). The luminescent signals were detected on a plate reader (SpectraMax i3x of MolecμLar Devices).
The inhibition rate (IR) of the assay compounds was calculated by the following formula:
IR (%)=(1−(RLU of compound−RLU of blank control)/(RLU of vehicle control−RLU of blank control))*100%.
The inhibition rates of different concentrations of compounds were calculated in Excel, and then GraphPad Prism software was used to draw inhibition curves and calculate relevant parameters, including the minimum inhibition rate, maximum inhibition rate, and IC50.
(In ATP-based viability assays light output follows the ATP content of the culture.)

A further data set has as its system CHK1(p-Ser345). In words: Assay of CHK1(p-Ser345) in vitro: inhibition of CHK1 phosphorylation in HT29 cells after 4NQO, alpha screen. Format: cell-based. The note with it: Homo sapiens, read-out: % Inhibition of CHKI phosphorylation; for inhibition at 0.0002 µM: HT-29, 0.2 nM compound; for inhibition at 0.025 µM: HT-29, 25 nM compound. On the procedure:
The assay process was as follows: • 1) When cells HT29 grew to about 80% confluence, the cells were digested and plated on a 96-well plate (80,000 cells/well), and 90 ul of cell suspension was added to each well; the cell plate was placed in a 5% carbon dioxide, 37° C. incubator overnight; • 2) The next day, the supernatant was removed from the cell plate, and 90 ul of compounds with different concentrations were added; the plate was incubated at 37° C. for 1 hour, and then 10 ul of 7 uM 4NQO medium was added; the plate was incubated at 37° C. for 1 hour; • 3) After the incubation was completed, the supernatant was removed, and 50 ul/well cell lysate was added; the plate was shaken and incubated at room temperature for 50 minutes; • 4) After the incubation was completed, 8 ul/well cell lysate was transferred to a 384-well detection plate, and 5 ul of Acceptor was added; the plate was incubated at room temperature for 2 hours; • 5) Then 2 ul of Donor was added, and the plate was incubated at room temperature overnight; • 6) After the incubation was completed, alpha screen reading was performed.

Data set [1] in a line: Pharmacokinetics in vivo in mice, single intravenous or single oral administration, plasma LC-MS/MS. The following applies: mouse, female Balb/c Nude mice. The method, then:
The purpose of this assay is to study the pharmacokinetics of the compound of the present disclosure in the plasma of female Balb/c Nude mice after a single intravenous administration or a single oral administration.
In the intravenous group, plasma samples were collected at 9 time points of 5 minutes, 15 minutes, 30 minutes, 1 hour, 2 hours, 4 hours, 6 hours, 8 hours and 24 hours after administration; in the oral group, plasma samples were collected at 8 time points of 15 minutes, 30 minutes, 1 hour, 2 hours, 4 hours, 6 hours, 8 hours and 24 hours after administration; the samples were analyzed by LC-MS/MS for the plasma concentration data of the compound of the present disclosure, and the pharmacokinetic parameters, such as peak concentration, time to peak, clearance rate, half-life, maximum plasma drug concentration, area under the drug-time curve were calculated.

Data set [2] deals with subcutaneous xenograft tumor of human colorectal cancer LoVo cells. Kind of data set: In vivo pharmacodynamics on subcutaneous xenograft tumor of human colorectal cancer LoVo cells in BALB/c nude mouse model. On the set-up: species or system BALB/c nude mice. The note with it: oral 40 mg/kg, twice a day, 4 days on and 3 days rest per week, 21 days of administration. On the procedure: In this assay, the inhibitory effect of the compound of the present disclosure on the growth of subcutaneous xenograft tumor of human colorectal cancer LoVo cells was studied at an oral dosage of 40 mg/kg, twice a day, with 4 consecutive days of administration and 3 days of rest per week.
Assay method: The selected assay animals (provided by Shanghai Sippe-Bk Lab Animal Co., Ltd.) were BALB/c nude mice, 6-8 weeks old, weighing 18-22 grams.
Human colon cancer LoVo cells were cultured in a single layer in vitro with a culture condition of Ham's F-12 medium plus 10% fetal bovine serum, 100 U/mL penicillin, 100 μg/mL streptomycin and 2 mM glutamine, 37° C., 5% CO2. Cells were routinely digested and passaged with trypsin-EDTA twice a week. When the cell saturation was 80%-90%, the cells were collected, counted and inoculated. 0.1 mL (10×10^6 cells) of LoVo cells were subcutaneously inoculated on the right back of each nude mouse, and the mice were grouped and administered when the average tumor volume reached 146 mm^3. Tumor diameters were measured twice a week with vernier calipers. The calculation formula of tumor volume was: V=0.5 a×b^2, wherein a and b represent the long and short diameters of tumor, respectively.
The antitumor efficacy of the compound was evaluated by TGI (%) or relative tumor proliferation rate T/C (%). TGI (%) reflected the inhibition rate of tumor growth. […]
In general terms: Xenograft models place foreign cells or tissue in a host animal.

Broadly, the IC50 is the point on the concentration scale where inhibition reaches its midpoint. Low values mean greater potency in that assay, high ones weaker potency in that assay. As a reminder, the inhibition is the relative decrease from the control value, in per cent. The compound `C[C@@H]1COCCN1c1cc(N2CCC3(CNC3)C2)c2c(F)cnc(-c3ccn[nH]3)c2n1` [Example 27] came in with a half-maximal inhibitory concentration (IC50) in the data set on tumor cell line LoVo of 0.374 µM. In addition, in the data set on CHK1(p-Ser345), the inhibition at 0.0002 µM amounted to 8.45% and the inhibition at 0.025 µM came to 78.3%.
In the case of `C[C@@H]1COCCN1c1cc(-c2ncnn2C)c2c(F)cnc(-c3ccn[nH]3)c2n1` [Example 6], the 50% inhibitory concentration (IC50) with tumor cell line LoVo was determined as 0.395 µM.
Same read-out and setting: the same measure for `Cc1nnn(C)c1-c1cc(N2CCOC[C@H]2C)nc2c(-c3ccn[nH]3)ncc(F)c12` [Example 18]: 0.146 µM.
The same measure, in the same setting: in the case of `Cc1ncccc1-c1cc(N2CCOC[C@H]2C)nc2c(-c3ccn[nH]3)ncc(F)c12` [Example 21] it was 0.077 µM; in that of `C[C@@H]1COCCN1c1cc(-c2ccc(S(C)(=O)=O)cc2)c2c(F)cnc(-c3ccn[nH]3)c2n1` [Example 23], 0.084 µM.
`CC(C)Oc1cc(N2CCOC[C@H]2C)nc2c(-c3ccn[nH]3)ncc(F)c12` [Example 8] registered a half-inhibitory concentration (IC50) in the data set on tumor cell line LoVo of 0.181 µM. Further, in the data set with CHK1(p-Ser345), the inhibition at 0.0002 µM worked out at 3.79% and the inhibition at 0.025 µM was 75.9%.
For the compound `Cc1cc(-c2cc(N3CCOC[C@H]3C)nc3c(-c4ccn[nH]4)ncc(F)c23)n(C)n1` [Example 16], the IC50 in the data set on tumor cell line LoVo worked out at 0.031 µM. Also, in the data set with CHK1(p-Ser345), the inhibition at 0.0002 µM was 12.3% and the inhibition at 0.025 µM was 97.5%.
Compound `Cc1cnn(C)c1-c1cc(N2CCOC[C@H]2C)nc2c(-c3ccn[nH]3)ncc(F)c12` [Example 2] registered an IC50 in the data set on tumor cell line LoVo of 0.078 µM.
In the data set on tumor cell line LoVo, `Cn1nccc1-c1cc(N2C3CCC2COC3)nc2c(-c3ccn[nH]3)ncc(F)c12` [Example 28] had an IC50 of 0.253 µM.
In turn, `Cc1noc(C)c1-c1cc(N2CCOC[C@H]2C)nc2c(-c3ccn[nH]3)ncc(F)c12` [Example 15] registered a half-inhibitory concentration (IC50) with tumor cell line LoVo of 0.182 µM.
Regarding `Cc1cnccc1-c1cc(N2CCOC[C@H]2C)nc2c(-c3ccn[nH]3)ncc(F)c12` [Example 20], in the data set on tumor cell line LoVo, the IC50 came to 0.041 µM. In the data set with CHK1(p-Ser345), the inhibition at 0.0002 µM is 6.34% and the inhibition at 0.025 µM was 95.5%.
`Cc1n[nH]c(C)c1-c1cc(N2CCOC[C@H]2C)nc2c(-c3ccn[nH]3)ncc(F)c12` [Example 17]: the IC50 in the data set on tumor cell line LoVo came out at 0.099 µM.
In turn, `C[C@@H]1COCCN1c1cc(C2(O)CCOCC2)c2c(F)cnc(-c3ccn[nH]3)c2n1` [Example 12] returned an IC50 in the data set on tumor cell line LoVo of 0.129 µM.
Compound `C[C@@H]1COCCN1c1cc(C2(C#N)CCOCC2)c2c(F)cnc(-c3ccn[nH]3)c2n1` [Example 3] showed an IC50 in the data set with tumor cell line LoVo of 0.061 µM. Further, in the data set with CHK1(p-Ser345), the inhibition at 0.0002 µM came to 4.52% and the inhibition at 0.025 µM was found to be 93.2%.
In the data set on tumor cell line LoVo, `C[C@@H]1COCCN1c1cc(-c2ccnc3[nH]ccc23)c2c(F)cnc(-c3ccn[nH]3)c2n1` [Example 24] registered an IC50 of 0.059 µM. Further, in the data set on CHK1(p-Ser345), the inhibition at 0.0002 µM worked out at 9.72% and the inhibition at 0.025 µM was determined as 88%.
Consider `C[C@@H]1COCCN1c1cc(-c2ccnn2C)c2c(F)cnc(-c3ccn[nH]3)c2n1` [Example 1], for which the IC50 with tumor cell line LoVo was found to be 0.064 µM. In addition, in the data set on CHK1(p-Ser345), the inhibition at 0.0002 µM worked out at 10.8% and the inhibition at 0.025 µM is 98%. The clearance in data set [1] (Intravenous injection (1 mg/kg), read-out: Clearance rate) stood at 13.7 mL/min/kg. Moreover, in data set [1] (Intravenous injection (1 mg/kg), read-out: Half-life T1/2 (converted)), the half-life was 31.7 min. The AUC(0-t) in data set [1] (Oral (10 mg/kg), read-out: Area under the drug-time curve AUC0-24 h) was found to be 41.2 µM·h. Besides, the Cmax in data set [1] (Oral (10 mg/kg), read-out: Maximum plasma drug concentration Cmax) amounted to 23.6 µM. In addition, the “TGI (%)” value in data set [2] came to 92.4%.
Consider `C[C@@H]1COCCN1c1cc(C2CCOCC2)c2c(F)cnc(-c3ccn[nH]3)c2n1` [Example 11], for which, in the data set with tumor cell line LoVo, the IC50 was 0.059 µM.
`Cn1nccc1-c1cc(N2CC3CCC(C2)O3)nc2c(-c3ccn[nH]3)ncc(F)c12` [Example 29] displayed an IC50 with tumor cell line LoVo of 0.475 µM. Besides, in the data set with CHK1(p-Ser345), the inhibition at 0.0002 µM came to 5.34% and the inhibition at 0.025 µM came to 64.5%.
In the data set with tumor cell line LoVo, `C[C@@H]1COCCN1c1cc(-c2cnnn2C)c2c(F)cnc(-c3ccn[nH]3)c2n1` [Example 4] gave an IC50 of 0.141 µM.
`C[C@@H]1COCCN1c1cc(-c2ccncc2F)c2c(F)cnc(-c3ccn[nH]3)c2n1` [Example 22] registered an IC50 in the data set on tumor cell line LoVo of 0.08 µM.
Same read-out and setting: the same measure for `C[C@@H]1COCCN1c1cc(N2CCOCC2)c2c(F)cnc(-c3ccn[nH]3)c2n1` [Example 13]: 0.066 µM; for `C[C@@H]1COCCN1c1cc(C2=CCOCC2)c2c(F)cnc(-c3ccn[nH]3)c2n1` [Example 10]: 0.082 µM.
In the data set with tumor cell line LoVo, `C[C@@H]1COCCN1c1cc(C2CC2)c2c(F)cnc(-c3ccn[nH]3)c2n1` [Example 9] had a half-maximal inhibitory concentration (IC50) of 0.089 µM.
`Cc1nn(C)cc1-c1cc(N2CCOC[C@H]2C)nc2c(-c3ccn[nH]3)ncc(F)c12` [Example 14] returned an IC50 in the data set on tumor cell line LoVo of 0.103 µM.
